According to ChEMBL document CHEMBL5331051, “Cationic, amphipathic small molecules based on a triazine-piperazine-triazine scaffold as a new class of antimicrobial agents” (Eur J Med Chem, 2022):
Converted amounts (≈) assume the structure as drawn. The source made the active and inactive calls. The calls are words filed in the database; no cut-off is given here. Positions of bridges follow the written chain, without caps; N, C: chain ends. Non-standard residues stand in square brackets, D forms with d. Residues, ends and D or L forms follow the SMILES beside them. *: point of attachment. Heptanoyl(6-Me) = CC(C)CCCCC(=O)*; dDab = NCC[C@@H](N)C(=O)O; Dab = NCC[C@H](N)C(=O)O

Key:
[1] = system: Staphylococcus aureus; test: Antibacterial activity against Staphylococcus aureus KCTC 1621 strain assessed as bacterial growth inhibition measured at 18 to 24 hrs by microdilution assay; type: functional; details: time 18-24 hrs
[2] = system: Erythrocyte; test: Hemolytic activity in sheep RBC assessed as minimal hemolytic concentration causing 10% hemolysis incubated for 1 hr by ELISA; type: toxicity, cell-based, Ovis aries
[3] = system: Escherichia coli; test: Antibacterial activity against Escherichia coli KCTC 1682 strain assessed as bacterial growth inhibition measured at 18 to 24 hrs by microdilution assay; type: functional; details: time 18-24 hrs
[4] = system: Pseudomonas aeruginosa; test: Antibacterial activity against Pseudomonas aeruginosa KCTC 1637 strain assessed as bacterial growth inhibition measured at 18 to 24 hrs by microdilution assay; type: functional; details: time 18-24 hrs
[5] = system: Staphylococcus epidermidis; test: Antibacterial activity against Staphylococcus epidermidis KCTC 1917 strain assessed as bacterial growth inhibition measured at 18 to 24 hrs by microdilution assay; type: functional; details: time 18-24 hrs
[6] = system: Staphylococcus aureus; test: Antibacterial activity against methicillin-resistant Staphylococcus aureus CCARM 3089 strain assessed as bacterial growth inhibition measured at 18 to 24 hrs by microdilution assay; type: functional; details: time 18-24 hrs
[7] = system: Enterococcus faecium; test: Antibacterial activity against vancomycin-resistant Enterococcus faecium ATCC 51559 strain assessed as bacterial growth inhibition measured at 18 to 24 hrs by microdilution assay; type: functional; details: time 18-24 hrs
[8] = system: Staphylococcus aureus; test: Antibacterial activity against methicillin-resistant Staphylococcus aureus CCARM 3095 strain assessed as bacterial growth inhibition measured at 18 to 24 hrs by microdilution assay; type: functional; details: time 18-24 hrs
[9] = system: Pseudomonas aeruginosa; test: Synergistic antibacterial activity against multidrug-resistant Pseudomonas aeruginosa CCARM 2095 strain assessed as bacterial growth inhibition by checkerboard assay; type: functional
[10] = system: Pseudomonas aeruginosa; test: Antibacterial activity against multidrug-resistant Pseudomonas aeruginosa CCARM 2109 strain assessed as bacterial growth inhibition measured at 18 to 24 hrs by microdilution assay; type: functional; details: time 18-24 hrs
[11] = system: Pseudomonas aeruginosa; test: Bactericidal activity against multidrug-resistant Pseudomonas aeruginosa CCARM 2095 measured after 24 hrs by time-kill kinetics assay; type: functional, organism-based
[12] = system: Pseudomonas aeruginosa; test: Antibacterial activity against multidrug-resistant Pseudomonas aeruginosa CCARM 2095 strain assessed as bacterial growth inhibition measured at 18 to 24 hrs by microdilution assay; type: functional; details: time 18-24 hrs
[13] = system: Staphylococcus aureus; test: Antibacterial activity against methicillin-resistant Staphylococcus aureus CCARM 3089 strain assessed as bacterial growth inhibition by checkerboard assay; type: functional
[14] = system: Pseudomonas aeruginosa; test: Bacteriostatic activity against multidrug-resistant Pseudomonas aeruginosa CCARM 2095 measured after 24 hrs by time-kill kinetics assay; type: functional, organism-based
[15] = system: Pseudomonas aeruginosa; test: Additive antibacterial activity against multidrug-resistant Pseudomonas aeruginosa CCARM 2095 strain assessed as bacterial growth inhibition by checkerboard assay; type: functional
[16] = system: Staphylococcus aureus; test: Antibacterial activity against methicillin-resistant Staphylococcus aureus CCARM 3090 strain assessed as bacterial growth inhibition measured at 18 to 24 hrs by microdilution assay; type: functional; details: time 18-24 hrs
[17] = system: Pseudomonas aeruginosa; test: Antibiofilm activity against multidrug-resistant Pseudomonas aeruginosa assessed as inhibition of biofilm formation; type: functional
[18] = system: Pseudomonas aeruginosa; test: Antibiofilm activity against multidrug-resistant Pseudomonas aeruginosa assessed as biofilm eradication; type: functional
[19] = system: Lipopolysaccharide (LPS); test: Binding affinity to Escherichia coli O111:B4 lipopolysaccharide assessed as suppression of FTIC labeled LPS binding to mouse RAW264.7 cells at 20 ug/ml pretreated with LPS followed by compound addition by flow cytometer assay (reference value: 67.4%); type: cell-based; details: dose 20.0 µg/ml
[20] = system: Lipopolysaccharide (LPS); test: Binding affinity to Escherichia coli O111:B4 lipopolysaccharide assessed as suppression of FTIC labeled LPS binding to mouse RAW264.7 cells at 20 ug/ml pretreated LPS with cells for 1 hr followed by compound addition measured after 1 hr by flow cytometer assay (reference value: 48.12%); type: cell-based; details: dose 20.0 µg/ml

| Structure (SMILES) | MIC [1] [µM] | MHC [2] [µM] | MIC [3] [µM] | MIC [4] [µM] | MIC [5] [µM] | also measured |
| --- | --- | --- | --- | --- | --- | --- |
| N=C(N)NCCCN(CCCNC(=N)N)c1nc(NCc2ccccc2)nc(N2CC(Cc3ccccc3)N(c3nc(NCc4ccccc4)nc(N(CCCNC(=N)N)CCCNC(=N)N)n3)CC2Cc2ccccc2)n1 (stereo not given) | 4.4 (≈ 4.67 µg/mL) | 226.4 | 16.5 (≈ 17.5 µg/mL) | 8.2 (≈ 8.7 µg/mL) | 4.1 (≈ 4.35 µg/mL) | – |
| O=C(O)c1cn(C2CC2)c2cc(N3CCNCC3)c(F)cc2c1=O [CIPROFLOXACIN] | – | – | – | – | – | MIC [6]: > 6180 µM; MIC [7]: 1550 µM (≈ 512 µg/mL); MIC [8]: > 6180 µM; MIC [9]: 1020 µg/mL; MIC [10]: > 6180 µM; Activity [11]: inactive; MIC [12]: 3090 µM (≈ 1020 µg/mL); MIC [13]: 512 µg/mL; Activity [14]: inactive; MIC [15]: 1020 µg/mL; MIC [16]: > 6180 µM |
| NCCNc1nc(NCCN)nc(N2CCN(c3nc(NCCN)nc(NCCN)n3)C(Cc3ccccc3)C2)n1 (stereo not given) | 56.4 (≈ 32 µg/mL) | > 451.1 | 56.4 (≈ 32 µg/mL) | 28.2 (≈ 16 µg/mL) | 56.4 (≈ 32 µg/mL) | – |
| Cc1onc(-c2ccccc2)c1C(=O)N[C@@H]1C(=O)N2[C@@H]1SC(C)(C)[C@@H]2C(=O)O [OXACILLIN] | – | – | – | – | – | MIC [6]: 2550 µM (≈ 1020 µg/mL); MIC [7]: 2180 µM (≈ 873 µg/mL); MIC [8]: > 5100 µM; MIC [9]: 1020 µg/mL; MIC [10]: 5100 µM (≈ 2050 µg/mL); Activity [11]: inactive; MIC [12]: 5100 µM (≈ 2050 µg/mL); MIC [13]: 1020 µg/mL; Activity [14]: inactive; MIC [15]: 1020 µg/mL; MIC [16]: > 5100 µM |
| NCCCNc1nc(NCCCN)nc(N2CC(Cc3ccccc3)N(c3nc(NCCCN)nc(NCCCN)n3)CC2Cc2ccccc2)n1 (stereo not given) | 11.2 (≈ 7.99 µg/mL) | > 358.4 | 11.2 (≈ 7.99 µg/mL) | 22.4 (≈ 16 µg/mL) | 11.2 (≈ 7.99 µg/mL) | – |
| N=C(N)NCCCCNc1nc(NCCCCNC(=N)N)nc(N2CCN(c3nc(NCCCCNC(=N)N)nc(NCCCCNC(=N)N)n3)C(Cc3ccccc3)C2)n1 (stereo not given) | 9.4 (≈ 7.96 µg/mL) | > 302.1 | 18.9 (≈ 16 µg/mL) | 9.4 (≈ 7.96 µg/mL) | 4.7 (≈ 3.98 µg/mL) | – |
| N=C(N)NCCN(CCNC(=N)N)c1nc(NCc2ccccc2)nc(N2CC(Cc3ccccc3)N(c3nc(NCc4ccccc4)nc(N(CCNC(=N)N)CCNC(=N)N)n3)CC2Cc2ccccc2)n1 (stereo not given) | 4.4 (≈ 4.42 µg/mL) | 124.5 | 8.7 (≈ 8.75 µg/mL) | 8.7 (≈ 8.75 µg/mL) | 4.4 (≈ 4.42 µg/mL) | – |
| N=C(N)NCCCNc1nc(NCCCNC(=N)N)nc(N2CC(Cc3ccccc3)N(c3nc(NCCCNC(=N)N)nc(NCCCNC(=N)N)n3)CC2Cc2ccccc2)n1 (stereo not given) | 4.5 (≈ 3.97 µg/mL) | > 290.3 | 9.1 (≈ 8.02 µg/mL) | 18.1 (≈ 15.9 µg/mL) | 9.1 (≈ 8.02 µg/mL) | MBEC50 [17]: 18.1 µM; MBEC90 [17]: 145.2 µM; MBIC [17]: 36.3 µM; MBIC50 [17]: 4.5 µM; MBEC50 [18]: 18.1 µM; MBEC90 [18]: 145.2 µM |
| N=C(N)NCCCNc1nc(NCCCNC(=N)N)nc(N2CCN(c3nc(NCCCNC(=N)N)nc(NCCCNC(=N)N)n3)C(Cc3ccccc3)C2)n1 (stereo not given) | 20.2 (≈ 16 µg/mL) | > 322.6 | 20.2 (≈ 16 µg/mL) | 20.2 (≈ 16 µg/mL) | 20.2 (≈ 16 µg/mL) | – |
| CC(C)CCCCC(=O)N[C@@H](CCN)C(=O)N[C@H](C(=O)N[C@@H](CCN)C(=O)N[C@H]1CCNC(=O)[C@H]([C@@H](C)O)NC(=O)[C@H](CCN)NC(=O)[C@H](CCN)NC(=O)[C@H](CC(C)C)NC(=O)[C@@H](Cc2ccccc2)NC(=O)[C@@H](CCN)NC1=O)[C@@H](C)O ({Heptanoyl(6-Me)}-[Dab]T[Dab][Dab][dDab][dF]L[Dab][Dab]T; lactam 4-C) | – | – | – | – | – | Flu intensity [19]: 12.3%; Flu intensity [20]: 45.3% |
